Results taken from patent US10265311B2, “Methods and compositions for treatment of disorders ameliorated by muscarinic receptor activation” (PureTech Health LLC, priority 2009, dated 2019).

Columns and labels:
[1] = test system: normal healthy volunteers; experiment: Phase I double-blind randomized multiple-dose study, xanomeline alone vs xanomeline with trospium chloride: adverse event incidence; format: in vivo, human
Description: We conducted a Phase I, double-blind, randomized multiple-dose pilot study of xanomeline administered alone compared to xanomeline administered in combination with trospium chloride in normal healthy volunteers. […] The parameters of the study were as follows:
70 total study subjects were randomized, and of these, 68 study subjects received at least one assessment on day 3, which was the first day of xanomeline administration. The demographics of the study subjects were as follows:
The incidence and number of cholinergic adverse events in the evaluable population of the study was as follows, with all p-values based on a chi-squared test, with the exception of those marked with a * which werebased on a Fisher's exact test: […]

[2] = methscopolamine given with xanomeline; Medina et al. 1997; cited from earlier work
[3] = with the anticholinergic agent glycopyrrolate; escalating amounts of RS-86; Alzheimer's Disease; cited from earlier work
[4] = evaluable population, xanomeline 75 mg TID, trospium 20 mg BID or placebo, 7 days

## CCCCCCOc1nsnc1C1=CCCN(C)C1 [Xanomeline + placebo, Xanomeline]
[1]; evaluable population, 7 days
  Salivation, % of subjects: 36.4%
  Sweating, % of subjects: 48.5%
[1]; [4]
  Any cholinergic TEAEs, # of events: 64
  Any cholinergic TEAEs, % of subjects: 63.6%
  Any cholinergic TEAEs, n subjects: 21
[1]; evaluable population, xanomeline 75 mg TID, trospium 20 mg BID or placebo, 7 days, listed as xanomeline+placebo
  Any cholinergic TEAEs, % of subjects: 63%
[1]; in vivo
  Any SAE, # events: 0
  Any SAE, %: 0.0%
  Any study drug related TEAE, # events: 92
  Any study drug related TEAE, %: 69.7%
  Max Severity of TEAE Mild, %: (66.7) N/A %
  Max Severity of TEAE Moderate, %: (15.2) N/A %
  Max Severity of TEAE Severe, %: (0.0) %
  Max severity of study drug related TEAE Mild, %: (57/6) N/A
  Max severity of study drug related TEAE Moderate, %: (12.1) N/A %
  Max severity of study drug related TEAE Severe, %: (0.0) N/A %

## C[N+]1(C)[C@@H]2C[C@@H](OC(=O)[C@H](CO)c3ccccc3)C[C@H]1[C@@H]1O[C@@H]12 [methscopolamine]
[2]
  effect on syncope, a side effect observed with xanomeline: no effect on syncope

## CCN1C(=O)CC2(CCN(C)CC2)C1=O [RS-86]
[3]
  improvement in cognition: did not result in any improvement in cognition
